Experimental data as given in patent US20240033282A1, “METHOD FOR IDENTIFYING AND/OR FOR OBTAINING AN ACTIVE SUBSTANCE FOR THE TREATMENT AND THERAPY OF FAMILIAL AMYOTROPHIC LATERAL SCLEROSIS, AND USE OF AN ACTIVE SUBSTANCE FOR THE TREATMENT OF THIS DISEASE” (Forschungszentrum Juelich GmbH, priority 2020, published 2024).

Assays:
[1] = test system: uptake of SOD1 aggregates into neuro-2a cells; assay: flow cytometric determination of the uptake of fluorescently labeled SOD1 aggregates into neuro-2a cells; assay type: cell-based; details: for uptake of fluorescently labeled SOD1 aggregates after treatment with endocytosis inhibitors: flow cytometry, FIG. 3
[2] = test system: ALS; details: clinical studies, compared to placebo, some individuals; cited from earlier work
[3] = test system: uptake of SOD1 aggregates into primary cortical neurons; assay: flow cytometric determination of the uptake of fluorescently labeled SOD1 aggregates into primary cortical neurons; assay type: cell-based; details: primary cortical neurons of wild-type mice, treated as for neuro-2a cells, FIG. 7A
Method: In order to investigate whether the results in neuro-2a cells can be expanded to primary cortical neurons, isolated, cultured and treated primary cortical neurons of wild-type mice were treated with heparinase and chondroitinase as previously for neuro-2a cells, before they were exposed to DyLight 488-labeled SOD1 aggregates (FIG. 7A). Likewise, the uptake of SOD1 aggregates after blocking with heparin was tested, as previously carried out for neuro-2a cells (FIG. 7A). The uptake of SOD1 aggregates was again quantified by flow cytometry. […] The “***” or “****” above the bars indicate the statistical significance of the results. “***” corresponds to a significance with p≤0.001 and “****” corresponds to a significance with p≤0.0001 in comparison to the control.

[4] = test system: prion diseases; details: in vivo; cited from earlier work

Compound	uptake of fluorescently labeled SOD1 aggregates after treatment with endocytosis inhibitors ([1]; neuro-2a cells)	other results
CCN(c1nc(N)c(C(=O)N=C(N)N)nc1Cl)C(C)C [EIPA, 5-N-ethyl-N-isopropyl amiloride]	reduced the uptake of SOD1 aggregates significantly	–
Oc1ccc2ccccc2c1SSc1c(O)ccc2ccccc12 [IPA-3, 2,2′-dihydroxy-1,1′-dinaphthyl disulfide]	reduced the uptake of SOD1 aggregates significantly	–
CC1=NN(c2ccccc2)C(=O)C1 [Radicava, edaravone]	–	decrease in bodily function measured by ALSFRS-R [2]: significantly lower decrease in bodily function compared to placebo
CN(C)CCCN1c2ccccc2Sc2ccc(Cl)cc21 [chloropromazine, Chlorpromazine]	Neither the chloropromazine treatment nor the genistein treatment inhibited the uptake of SOD1 aggregates significantly	–
C=C1[C@@H](C)[C@H]2[C@H](Cc3ccccc3)NC(=O)[C@]23[C@H](OC(C)=O)/C=C/[C@@](C)(O)C(=O)[C@@H](C)C/C=C/[C@H]3[C@@H]1O [cytochalasin D]	significantly inhibited the uptake	–
O=C(N/N=C/c1ccc(O)c(O)c1)c1cc2ccccc2cc1O [dynasore]	inhibited the uptake of SOD1 aggregates	–
O=c1c(-c2ccc(O)cc2)coc2cc(O)cc(O)c12 [genistein, Genistein]	Neither the chloropromazine treatment nor the genistein treatment inhibited the uptake of SOD1 aggregates significantly	–
[Na+].[O-][Cl+2]([O-])[O-] [sodium chlorate]	–	uptake of SOD1 aggregates after sodium chlorate treatment [1]: reduced the uptake of SOD1 aggregates in a dose-dependent manner
heparin	–	uptake of DyLight 488-labeled SOD1 aggregates into primary cortical neurons [3]: inhibits uptake of SOD1 aggregates into primary cortical neurons; uptake of SOD1 aggregates pre-treated with heparin ([1]; aggregates treated at 4° C. with 1 mg/mL heparin for 6 hours, neuro-2a cells incubated 6 hours, FIG. 4B): inhibited the uptake of both wild-type and mutated SOD1 aggregates
methyl-β-cyclodextrin	significantly reduced the uptake of SOD1 aggregates	–
pentosan polysulfate sodium [PPS]	–	survival of infected animals [4]: extending the survival of infected animals after intracerebroventricular perfusion in a dose-dependent manner; cellular uptake of fluorescently labeled wild-type and mutated SOD1 aggregates after PPS treatment ([1]; neuro-2a cells, increasing PPS concentrations, FIG. 5): competitively inhibited the cellular uptake of fluorescently labeled wild-type and mutated SOD1 aggregates at non-cytotoxic concentrations
